Experimental findings from BindingDB's records for doi:10.1021/jm0303857 (Johnson & Johnson Pharmaceutical, 2005) are described below.

The target of assay [1] is Prothrombin (Homo sapiens, UniProt P00734). The assay is described as follows: Enzyme Inhibition Assay. The procedure: Thrombin-catalyzed hydrolysis rates were measured spectrophotometrically using human alpha-thrombin, a chromogenic substrate in aqueous buffer, and a microplate reader. […] The IC50 values were determined by fixing the enzyme and substrate concentrations and varying the inhibitor concentration. Ki values were determined by fixing the enzyme and inhibitor concentrations and varying the substrate concentration. Michaelis-Menton kinetics was applied to the initial reaction slopes using the program K.Cat (Bio Metallics Inc.).

Assay [2] addresses T1, Serine protease 1 (Bos taurus, UniProt P00760).
T1 sequence (P00760 whole entry): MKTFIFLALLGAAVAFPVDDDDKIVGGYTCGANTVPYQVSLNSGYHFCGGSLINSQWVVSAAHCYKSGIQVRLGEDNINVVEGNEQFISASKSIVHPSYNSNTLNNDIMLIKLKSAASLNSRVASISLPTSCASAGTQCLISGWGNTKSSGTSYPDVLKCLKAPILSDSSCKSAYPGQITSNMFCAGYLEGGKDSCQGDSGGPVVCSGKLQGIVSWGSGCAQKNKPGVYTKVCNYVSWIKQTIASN
The assay is described as follows: Enzyme Inhibition Assay.

Structures are written as SMILES. Several values for one entry are separate records, joined by “and”; a condition that tells them apart may be missing. Equal entries are not always repeated.

Regarding `CN[C@H](Cc1ccccc1)C(=O)N1CCC[C@H]1C(=O)N[C@@H](CCCNC(=N)N)C(=O)c1cc2ccccc2s1`, the IC50 in assay [1] was determined as 13000 nM.

In assay [2], `CN[C@H](Cc1ccccc1)C(=O)N1CCC[C@H]1C(=O)N[C@@H](CCCN=C(N)N)C(=O)c1nc2ccc(C(=O)O)cc2s1` [2-[(2S)-5-carbamimidamido-2-{[(2S)-1-[(2R)-2-(methylamino)-3-phenylpropanoyl]pyrrolidin-2-yl]formamido}pentanoyl]-1,3-benzothiazole-6-carboxylic acid] gave a Ki of 2.7 nM.

For the compound `N=C(N)NCCCCC(=O)c1nc2ccccc2s1` [3-[5-(1,3-benzothiazol-2-yl)-5-oxopentyl]guanidine], the IC50 in assay [1] was above 300000 nM. The compound also gave a Ki in assay [2] above 100000 nM.

As for `NC(N)=NCCCC(NC(=O)[C@@H]1CCCN1C(=O)C(N)(c1ccccc1)c1ccccc1)C(=O)c1nc2ccccc2s1` (stereo partly drawn) [(2S)-1-(2-amino-2,2-diphenylacetyl)-N-[1-(1,3-benzothiazol-2-yl)-5-carbamimidamido-1-oxopentan-2-yl]pyrrolidine-2-carboxamide], in assay [1] (pH 7.4, 37 °C), the IC50 is 15 nM and the Ki worked out at 2.1 nM. In assay [2], this compound had a Ki of 1.8 nM.

Compound `CC(N)(Cc1ccccc1)C(=O)N1CCC[C@H]1C(=O)NC(CCCN=C(N)N)C(=O)c1nc2ccccc2s1` (stereo partly drawn) [(2S)-1-(2-amino-2-benzylpropanoyl)-N-[1-(1,3-benzothiazol-2-yl)-5-carbamimidamido-1-oxopentan-2-yl]pyrrolidine-2-carboxamide] registered an inhibitory constant (Ki) in assay [2] of 3.9 nM.

In assay [2], `NC(N)=NCCCC(NC(=O)[C@@H]1CCCN1C(=O)[C@@H](N)Cc1ccccc1)C(=O)c1nc2ccccc2s1` (stereo partly drawn) [(2S)-1-[(2S)-2-amino-3-phenylpropanoyl]-N-[1-(1,3-benzothiazol-2-yl)-5-carbamimidamido-1-oxopentan-2-yl]pyrrolidine-2-carboxamide] displayed an IC50 of 5.8 nM.

On to `CN[C@H](Cc1ccccc1)C(=O)N1CCC[C@H]1C(=O)NC(CCCN=C(N)N)C(O)c1nc2ccccc2s1` (stereo partly drawn) [(2S)-N-[1-(1,3-benzothiazol-2-yl)-5-carbamimidamido-1-hydroxypentan-2-yl]-1-[(2R)-2-(methylamino)-3-phenylpropanoyl]pyrrolidine-2-carboxamide], for which, in assay [1], the IC50 is 48000 nM and 17000 nM; the Ki was 5300 nM and 1600 nM. In addition, the Ki in assay [2] was 180000 nM and 250000 nM.

Turning to `CN[C@@H](C(=O)N1CCC[C@H]1C(=O)NC(CCCN=C(N)N)C(=O)c1nc2ccccc2s1)c1ccccc1` (stereo partly drawn) [(2S)-N-[1-(1,3-benzothiazol-2-yl)-5-carbamimidamido-1-oxopentan-2-yl]-1-[(2R)-2-(methylamino)-2-phenylacetyl]pyrrolidine-2-carboxamide], in assay [2], the IC50 was 32 nM.

In assay [1] (pH 7.4, 37 °C), `CN[C@H](Cc1ccccc1)C(=O)N1CCC[C@H]1C(=O)NC(CCCN=C(N)N)C(=O)c1nc2ccccc2s1` (stereo partly drawn) [(2S)-N-[1-(1,3-benzothiazol-2-yl)-5-carbamimidamido-1-oxopentan-2-yl]-1-[(2R)-2-(methylamino)-3-phenylpropanoyl]pyrrolidine-2-carboxamide] yielded an IC50 of 29 nM and a Ki of 0.2 nM.

`CN[C@H](Cc1ccc(F)cc1)C(=O)N1CCC[C@H]1C(=O)NC(CCCN=C(N)N)C(=O)c1nc2ccccc2s1` (stereo partly drawn) [(2S)-N-[1-(1,3-benzothiazol-2-yl)-5-carbamimidamido-1-oxopentan-2-yl]-1-[(2R)-3-(4-fluorophenyl)-2-(methylamino)propanoyl]pyrrolidine-2-carboxamide]: in assay [2], affinity was put at a Ki of 3.3 nM.

In assay [1], `NC(N)=NCCCC(NC(=O)[C@@H]1CCCN1C(=O)C1(O)c2ccccc2-c2ccccc21)C(=O)c1nc2ccccc2s1` (stereo partly drawn) [(2S)-N-[1-(1,3-benzothiazol-2-yl)-5-carbamimidamido-1-oxopentan-2-yl]-1-[(9-hydroxy-9H-fluoren-9-yl)carbonyl]pyrrolidine-2-carboxamide] registered an IC50 of 95 nM and a Ki of 3.1 nM. This compound also came in with a Ki in assay [2] of 2 nM.

Regarding `CN[C@H](Cc1ccccc1)C(=O)N1CCC[C@H]1C(=O)NC(CCCN=C(N)N)C(=O)c1nccn1C` (stereo partly drawn) [(2S)-N-[5-carbamimidamido-1-(1-methyl-1H-imidazol-2-yl)-1-oxopentan-2-yl]-1-[(2R)-2-(methylamino)-3-phenylpropanoyl]pyrrolidine-2-carboxamide], the IC50 in assay [1] is 1500 nM. In addition, the Ki turned out to be 200 nM in assay [1] and 5800 nM in assay [2].

In assay [1], `CN[C@H](Cc1ccccc1)C(=O)N1CCC[C@H]1C(=O)NC(CCCN=C(N)N)C(=O)c1nccs1` (stereo partly drawn) [(2S)-N-[5-carbamimidamido-1-oxo-1-(1,3-thiazol-2-yl)pentan-2-yl]-1-[(2R)-2-(methylamino)-3-phenylpropanoyl]pyrrolidine-2-carboxamide] came in with an IC50 of 19 nM and a Ki of 2.1 nM. The same compound returned a Ki in assay [2] of 1.2 nM.

In assay [1], `CN[C@H](Cc1ccccc1)C(=O)N1CCC[C@H]1C(=O)NC(CCCN=C(N)N)C(=O)c1ccccn1` (stereo partly drawn) [(2S)-N-[5-carbamimidamido-1-oxo-1-(pyridin-2-yl)pentan-2-yl]-1-[(2R)-2-(methylamino)-3-phenylpropanoyl]pyrrolidine-2-carboxamide] gave an IC50 of 930 nM and a Ki of 85 nM. In assay [2], this compound gave a Ki of 73 nM.

As for `CN[C@H](Cc1ccccc1)C(=O)N1CCC[C@H]1C(=O)N[C@H](CC(=O)c1nc2ccccc2s1)C1CCC(N)CC1` (stereo partly drawn) [(2S)-N-[(1R)-1-(4-aminocyclohexyl)-3-(1,3-benzothiazol-2-yl)-3-oxopropyl]-1-[(2R)-2-(methylamino)-3-phenylpropanoyl]pyrrolidine-2-carboxamide], the IC50 in assay [1] is above 100000 nM; in assay [2] it was 58000 nM.

`CN[C@H](Cc1ccccc1)C(=O)N1CCC[C@H]1C(=O)N[C@@H](C(=O)c1nc2ccccc2s1)C1CCC(CN)CC1` (stereo partly drawn) [(2S)-N-[(1R)-1-[4-(aminomethyl)cyclohexyl]-2-(1,3-benzothiazol-2-yl)-2-oxoethyl]-1-[(2R)-2-(methylamino)-3-phenylpropanoyl]pyrrolidine-2-carboxamide] registered an IC50 in assay [1] above 1000 nM.

Consider `CN[C@H](Cc1ccccc1)C(=O)N1CCC[C@H]1C(=O)N[C@@H](CC(=O)c1nc2ccccc2s1)C1CCC(N)CC1` (stereo partly drawn) [(2S)-N-[(1S)-1-(4-aminocyclohexyl)-3-(1,3-benzothiazol-2-yl)-3-oxopropyl]-1-[(2R)-2-(methylamino)-3-phenylpropanoyl]pyrrolidine-2-carboxamide], for which the IC50 in assay [1] is above 100000 nM; in assay [2], 22000 nM.

On to `CN[C@H](Cc1ccccc1)C(=O)N1CCC[C@H]1C(=O)N[C@H](C(=O)c1nc2ccccc2s1)C1CCC(CN)CC1` (stereo partly drawn) [(2S)-N-[(1S)-1-[4-(aminomethyl)cyclohexyl]-2-(1,3-benzothiazol-2-yl)-2-oxoethyl]-1-[(2R)-2-(methylamino)-3-phenylpropanoyl]pyrrolidine-2-carboxamide], for which, in assay [1], half-maximal inhibition (IC50) required 17000 nM and the Ki was found to be 920 nM. In addition, the Ki in assay [2] came to 54 nM.

Consider `CNCCCC[C@@H](NC(=O)[C@@H]1CCCN1C(=O)[C@@H](Cc1ccccc1)NC)C(=O)c1nc2ccccc2s1` [(2S)-N-[(2R)-1-(1,3-benzothiazol-2-yl)-6-(methylamino)-1-oxohexan-2-yl]-1-[(2R)-2-(methylamino)-3-phenylpropanoyl]pyrrolidine-2-carboxamide], for which the IC50 in assay [1] was above 1000 nM.

Compound `CN[C@H](Cc1ccccc1)C(=O)N1CCC[C@H]1C(=O)N[C@@H](Cc1ccccc1)C(=O)c1nc2ccccc2s1` [(2S)-N-[(2S)-1-(1,3-benzothiazol-2-yl)-1-oxo-3-phenylpropan-2-yl]-1-[(2R)-2-(methylamino)-3-phenylpropanoyl]pyrrolidine-2-carboxamide] came in with an IC50 in assay [1] above 1000 nM.

In the case of `CN[C@H](Cc1ccccc1)C(=O)N1CCC[C@H]1C(=O)N[C@@H](Cc1ccc(C(=N)N)cc1)C(=O)c1nc2ccccc2s1` [(2S)-N-[(2S)-1-(1,3-benzothiazol-2-yl)-3-(4-carbamimidoylphenyl)-1-oxopropan-2-yl]-1-[(2R)-2-(methylamino)-3-phenylpropanoyl]pyrrolidine-2-carboxamide], in assay [1], the IC50 was above 1000 nM.

For `CN[C@@H](C(=O)N1CCC[C@H]1C(=O)N[C@@H](CCCN=C(N)N)C(=O)c1nc2ccccc2s1)C(c1ccccc1)c1ccccc1` [(2S)-N-[(2S)-1-(1,3-benzothiazol-2-yl)-5-carbamimidamido-1-oxopentan-2-yl]-1-[(2R)-2-(methylamino)-3,3-diphenylpropanoyl]pyrrolidine-2-carboxamide], the IC50 in assay [2] came out at 30 nM.

In assay [1] (pH 7.4, 37 °C), `CN[C@@H](C(=O)N1CCC[C@H]1C(=O)N[C@@H](CCCN=C(N)N)C(=O)c1nc2ccccc2s1)C1CCCCC1` [(2S)-N-[(2S)-1-(1,3-benzothiazol-2-yl)-5-carbamimidamido-1-oxopentan-2-yl]-1-[(2R)-2-cyclohexyl-2-(methylamino)acetyl]pyrrolidine-2-carboxamide] came in with an IC50 of 5.3 nM and a Ki of 0.018 nM. Further, the Ki in assay [2] turned out to be 1.2 nM.

For the compound `CNCCCC[C@H](NC(=O)[C@@H]1CCCN1C(=O)[C@@H](Cc1ccccc1)NC)C(=O)c1nc2ccccc2s1` [(2S)-N-[(2S)-1-(1,3-benzothiazol-2-yl)-6-(methylamino)-1-oxohexan-2-yl]-1-[(2R)-2-(methylamino)-3-phenylpropanoyl]pyrrolidine-2-carboxamide], the half-inhibitory concentration (IC50) in assay [1] was above 1000 nM.

For `CN[C@H](Cc1ccccc1)C(=O)N1CCC[C@H]1C(=O)N[C@@H](C(=O)c1nc2ccccc2s1)C1CCC(N)CC1` (stereo partly drawn) [The relative stereochemistry of the cyclohexyl ring is trans], in assay [1], the IC50 is 1900 nM. The figures for the Ki in assay [1] and in assay [2] were 110 nM and 330 nM, respectively.

In general, IC50 refers to the concentration at which inhibition is half-maximal. In general, Ki refers to the equilibrium dissociation constant of an inhibitor or competing ligand from its target. Lower therefore signals higher affinity.
